Measured values: publication PMC4664966, “Discovery and characterization of novel inhibitors of the sodium-coupled citrate transporter (NaCT or SLC13A5)” (Scientific Reports, 2015)
In brackets after ≈: the same amount, converted by molar mass.

Tests used:
[1] = Aqueous solubility; assay type: physicochemical; conditions: aqueous medium at pH 7.4, pH 7.4, aqueous buffer; read-out: Solubility7.4
[2] = system: human hepatocytes; assay: U-[13C]-citrate uptake and incorporation into TCA cycle intermediates in human hepatocytes; assay type: cell-based; conditions: 500 μM U-[13C]-citrate, 30 μM compound
Experimental: Primary hepatocytes were given the indicated substrates (compound and labeled citrate) under the same conditions used to generate the IC50 curves. Incubations were stopped by rapidly removing culture media and adding 80% methanol pre-cooled in dry ice. Cellular debris was removed by centrifugation and samples dried by Speedvac. Dried cell extracts were then re-dissolved in 100 μL HPLC-grade water. Citrate uptake was analyzed by injecting a 10 μL aliquot of sample onto an Imtakt UK-Phenyl (2.1 mm × 150 mm) column (Imtakt USA, Philadelphia, PA, USA) using a Waters Acquity UPLC system (Waters Corp., Milford, MA, USA) coupled to a Thermo Q-Exactive mass spectrometer (Thermo Corp., San Jose, CA, USA). […] Metabolites were monitored using negative ion electrospray, ESI(-), in full scan mode with a resolution of 70,000 FWHM calibrated to mass accuracy <2 ppm. […] Citrate transport was determined through enrichment of ^13C6-citrate into the intracellular pool of citrate as determined by the percent ^13C6-citrate in the total pool. Fate of citrate carbon through one turn of the TCA cycle was analyzed by comparing percent labeling into the respective pools of ^13C4-fumarate, ^13C4-malate, and ^13C4-glutamate. Thermo LCQuan (Thermo Corp, San Jose, CA, USA) was used to extract out exact mass using a 5 ppm window at the calculated accurate mass for each metabolite and its isotopomer. […]

[3] = biological target: Diacylglycerol acyltransferase 1 (DGAT1) (Homo sapiens, UniProt O75907); assay: Selectivity data (Table S1); assay type: biochemical
[4] = system: Calcium channel, L-type; assay: Selectivity data (Table S1)
[5] = biological target: Adrenergic receptor, beta-1 (ADRB1) (Homo sapiens, UniProt P08588); assay: Selectivity data (Table S1); assay type: binding
[6] = biological target: Endothelin (ETA) (Homo sapiens, UniProt P25101); assay: Selectivity data (Table S1); assay type: binding
[7] = biological target: Muscarinic acetylcholine receptor 2 (M2) (Homo sapiens, UniProt P08172); assay: Selectivity data (Table S1); assay type: binding
[8] = biological target: Muscarinic acetylcholine receptor 3 (M3) (Homo sapiens, UniProt P20309); assay: Selectivity data (Table S1); assay type: binding
[9] = biological target: Serotonin receptor 1B (5-HT1B) (Homo sapiens, UniProt P28222); assay: Selectivity data (Table S1); assay type: binding
[10] = biological target: Sodium channel, type V, alpha-subunit (NaV1.5) (Homo sapiens, UniProt Q14524); assay: Selectivity data (Table S1)
Sequence of Sodium channel, type V, alpha-subunit (NaV1.5) (Q14524 whole entry): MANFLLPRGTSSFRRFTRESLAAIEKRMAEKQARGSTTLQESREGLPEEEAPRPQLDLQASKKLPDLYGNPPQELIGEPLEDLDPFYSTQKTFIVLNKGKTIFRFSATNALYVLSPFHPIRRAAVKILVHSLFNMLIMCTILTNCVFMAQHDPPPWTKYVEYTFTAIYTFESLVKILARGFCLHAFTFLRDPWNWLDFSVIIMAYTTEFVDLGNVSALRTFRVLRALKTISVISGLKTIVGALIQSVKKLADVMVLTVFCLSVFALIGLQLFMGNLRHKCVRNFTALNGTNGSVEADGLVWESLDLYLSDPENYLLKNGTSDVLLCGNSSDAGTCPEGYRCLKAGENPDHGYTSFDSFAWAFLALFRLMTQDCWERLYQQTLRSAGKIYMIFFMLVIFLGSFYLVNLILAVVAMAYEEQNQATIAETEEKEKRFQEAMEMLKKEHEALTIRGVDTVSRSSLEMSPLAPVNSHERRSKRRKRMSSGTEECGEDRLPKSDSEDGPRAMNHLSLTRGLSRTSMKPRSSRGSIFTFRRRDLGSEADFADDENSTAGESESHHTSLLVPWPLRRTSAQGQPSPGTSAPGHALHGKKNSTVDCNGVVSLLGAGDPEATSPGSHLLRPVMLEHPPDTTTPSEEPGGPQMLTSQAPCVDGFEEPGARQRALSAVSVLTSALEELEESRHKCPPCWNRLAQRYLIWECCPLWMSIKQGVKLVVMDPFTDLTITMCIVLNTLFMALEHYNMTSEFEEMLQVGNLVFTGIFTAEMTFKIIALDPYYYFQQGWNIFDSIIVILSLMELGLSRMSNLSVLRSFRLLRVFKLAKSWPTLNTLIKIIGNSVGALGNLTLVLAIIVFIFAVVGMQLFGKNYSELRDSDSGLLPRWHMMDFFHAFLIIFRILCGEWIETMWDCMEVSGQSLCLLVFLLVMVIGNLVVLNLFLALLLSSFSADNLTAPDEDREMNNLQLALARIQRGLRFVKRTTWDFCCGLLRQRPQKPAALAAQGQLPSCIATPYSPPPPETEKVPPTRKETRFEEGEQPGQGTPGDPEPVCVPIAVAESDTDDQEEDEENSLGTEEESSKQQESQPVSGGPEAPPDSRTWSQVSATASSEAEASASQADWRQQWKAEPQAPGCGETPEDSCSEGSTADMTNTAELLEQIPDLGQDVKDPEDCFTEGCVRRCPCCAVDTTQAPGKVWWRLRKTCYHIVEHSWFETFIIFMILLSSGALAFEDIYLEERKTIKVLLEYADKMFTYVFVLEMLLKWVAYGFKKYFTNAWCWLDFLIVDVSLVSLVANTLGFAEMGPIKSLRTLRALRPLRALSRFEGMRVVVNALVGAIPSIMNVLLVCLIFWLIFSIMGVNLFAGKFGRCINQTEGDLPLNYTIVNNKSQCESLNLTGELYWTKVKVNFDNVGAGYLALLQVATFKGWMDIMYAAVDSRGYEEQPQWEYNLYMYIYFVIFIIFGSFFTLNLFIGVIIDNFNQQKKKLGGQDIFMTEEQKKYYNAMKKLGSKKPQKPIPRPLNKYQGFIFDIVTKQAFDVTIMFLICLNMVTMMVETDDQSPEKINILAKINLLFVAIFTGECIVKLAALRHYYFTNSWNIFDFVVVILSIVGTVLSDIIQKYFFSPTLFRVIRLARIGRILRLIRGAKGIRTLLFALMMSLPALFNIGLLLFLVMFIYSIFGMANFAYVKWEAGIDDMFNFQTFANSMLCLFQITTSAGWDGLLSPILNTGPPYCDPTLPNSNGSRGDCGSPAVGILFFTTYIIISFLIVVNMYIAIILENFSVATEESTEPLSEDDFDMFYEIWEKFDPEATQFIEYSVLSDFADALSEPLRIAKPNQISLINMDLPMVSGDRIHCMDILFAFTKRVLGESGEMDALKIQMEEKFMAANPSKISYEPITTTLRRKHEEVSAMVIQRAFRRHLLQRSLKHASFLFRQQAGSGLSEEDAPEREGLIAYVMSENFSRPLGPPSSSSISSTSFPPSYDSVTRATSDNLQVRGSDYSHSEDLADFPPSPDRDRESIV

Sequence of Serotonin receptor 1B (5-HT1B) (P28222 whole entry): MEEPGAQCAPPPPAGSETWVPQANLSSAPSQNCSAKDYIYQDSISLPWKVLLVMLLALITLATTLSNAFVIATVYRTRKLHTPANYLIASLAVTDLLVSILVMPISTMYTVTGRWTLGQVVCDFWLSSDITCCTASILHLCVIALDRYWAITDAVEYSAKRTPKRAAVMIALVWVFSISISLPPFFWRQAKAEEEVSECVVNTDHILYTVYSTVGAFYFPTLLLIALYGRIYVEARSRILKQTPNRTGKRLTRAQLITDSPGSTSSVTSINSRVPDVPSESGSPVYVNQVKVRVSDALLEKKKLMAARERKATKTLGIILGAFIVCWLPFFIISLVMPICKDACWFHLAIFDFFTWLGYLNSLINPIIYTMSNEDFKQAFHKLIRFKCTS
Sequence of Adrenergic receptor, beta-1 (ADRB1) (P08588 whole entry): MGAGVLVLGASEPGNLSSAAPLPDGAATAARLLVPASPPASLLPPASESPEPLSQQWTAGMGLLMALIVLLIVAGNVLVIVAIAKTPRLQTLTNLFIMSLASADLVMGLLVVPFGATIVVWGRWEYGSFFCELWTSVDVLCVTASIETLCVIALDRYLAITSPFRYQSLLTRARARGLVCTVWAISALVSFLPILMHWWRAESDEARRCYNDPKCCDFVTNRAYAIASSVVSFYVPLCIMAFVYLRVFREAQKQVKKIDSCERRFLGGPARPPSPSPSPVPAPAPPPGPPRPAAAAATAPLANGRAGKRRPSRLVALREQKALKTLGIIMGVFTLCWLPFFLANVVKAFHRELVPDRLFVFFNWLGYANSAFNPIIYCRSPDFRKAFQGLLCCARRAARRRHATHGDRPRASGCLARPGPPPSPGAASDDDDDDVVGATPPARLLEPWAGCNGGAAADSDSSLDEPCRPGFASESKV
Sequence of Muscarinic acetylcholine receptor 3 (M3) (P20309 whole entry): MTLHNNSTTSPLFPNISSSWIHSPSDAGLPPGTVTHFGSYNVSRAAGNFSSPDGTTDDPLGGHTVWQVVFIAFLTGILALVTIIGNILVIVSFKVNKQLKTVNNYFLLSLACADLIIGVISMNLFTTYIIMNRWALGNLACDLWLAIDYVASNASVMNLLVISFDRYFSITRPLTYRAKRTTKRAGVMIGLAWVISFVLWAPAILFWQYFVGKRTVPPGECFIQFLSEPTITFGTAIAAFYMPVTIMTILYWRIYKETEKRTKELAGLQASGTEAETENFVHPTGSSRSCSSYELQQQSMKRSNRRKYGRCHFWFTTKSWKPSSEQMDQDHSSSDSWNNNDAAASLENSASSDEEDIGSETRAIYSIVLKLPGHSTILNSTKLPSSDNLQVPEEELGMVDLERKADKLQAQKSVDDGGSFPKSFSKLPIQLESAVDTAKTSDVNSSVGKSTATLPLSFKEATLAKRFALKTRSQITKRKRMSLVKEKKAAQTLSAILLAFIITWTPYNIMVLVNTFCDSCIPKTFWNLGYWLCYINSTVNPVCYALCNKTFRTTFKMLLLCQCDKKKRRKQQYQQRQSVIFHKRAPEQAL
Sequence of Muscarinic acetylcholine receptor 2 (M2) (P08172 whole entry): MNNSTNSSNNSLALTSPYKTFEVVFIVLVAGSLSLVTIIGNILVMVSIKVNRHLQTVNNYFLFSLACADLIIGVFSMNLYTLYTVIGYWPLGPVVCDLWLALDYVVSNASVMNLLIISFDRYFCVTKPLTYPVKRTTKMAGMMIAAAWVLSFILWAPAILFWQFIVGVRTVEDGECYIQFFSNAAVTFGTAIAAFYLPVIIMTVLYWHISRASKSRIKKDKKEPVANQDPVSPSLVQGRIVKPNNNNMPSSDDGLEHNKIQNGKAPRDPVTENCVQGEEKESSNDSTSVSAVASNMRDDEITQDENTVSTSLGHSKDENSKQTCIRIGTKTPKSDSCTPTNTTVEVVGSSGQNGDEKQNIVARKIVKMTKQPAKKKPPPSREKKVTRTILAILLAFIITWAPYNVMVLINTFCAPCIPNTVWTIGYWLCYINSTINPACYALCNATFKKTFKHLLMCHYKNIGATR
Sequence of Diacylglycerol acyltransferase 1 (DGAT1) (O75907 whole entry, species assumed): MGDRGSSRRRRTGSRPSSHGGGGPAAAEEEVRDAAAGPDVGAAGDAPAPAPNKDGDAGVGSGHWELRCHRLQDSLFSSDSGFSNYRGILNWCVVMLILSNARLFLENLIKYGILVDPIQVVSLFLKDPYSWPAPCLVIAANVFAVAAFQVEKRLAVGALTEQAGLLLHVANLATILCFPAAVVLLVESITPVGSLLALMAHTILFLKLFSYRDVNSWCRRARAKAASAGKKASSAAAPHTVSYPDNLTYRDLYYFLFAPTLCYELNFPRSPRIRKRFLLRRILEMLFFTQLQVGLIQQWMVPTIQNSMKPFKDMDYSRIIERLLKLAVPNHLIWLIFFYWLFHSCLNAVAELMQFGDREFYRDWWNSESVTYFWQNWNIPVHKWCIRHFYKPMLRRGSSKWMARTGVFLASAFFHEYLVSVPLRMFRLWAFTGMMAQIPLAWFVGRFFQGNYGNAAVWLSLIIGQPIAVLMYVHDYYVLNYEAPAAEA
Sequence of Endothelin (ETA) (P25101 21-427): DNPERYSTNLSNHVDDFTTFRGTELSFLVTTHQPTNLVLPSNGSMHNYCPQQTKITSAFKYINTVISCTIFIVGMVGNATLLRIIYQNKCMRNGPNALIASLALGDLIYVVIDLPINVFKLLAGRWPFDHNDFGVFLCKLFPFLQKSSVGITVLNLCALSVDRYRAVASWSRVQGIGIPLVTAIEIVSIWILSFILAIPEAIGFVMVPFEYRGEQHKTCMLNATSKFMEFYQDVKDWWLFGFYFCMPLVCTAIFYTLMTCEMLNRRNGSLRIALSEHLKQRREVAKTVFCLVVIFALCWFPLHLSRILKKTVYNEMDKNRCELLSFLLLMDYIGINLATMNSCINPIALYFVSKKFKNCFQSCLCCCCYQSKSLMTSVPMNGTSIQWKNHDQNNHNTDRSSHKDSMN

CC(C)(C)c1ccc(CC[C@@](O)(CC(=O)O)C(=O)O)cc1 [Compound 2]
solubility [1]: 33 mM (≈ 9710 µg/mL)
uniform labeling of citrate, malate, glutamate and fumarate from U-[13C]-citrate [2]: reduced
IC50 [3]: > 50 µM
IC50 [4]: > 30 µM
inhibition at 100 µM [5]: < 10%
inhibition at 100 µM [6]: < 10%
inhibition at 100 µM [7]: < 10%
inhibition at 100 µM [8]: < 10%
inhibition at 100 µM [9]: < 10%
inhibition at 10 µM [10]: < 10%
